Entries after “also recorded” stand apart in the source; their conditions may differ. Like-named read-outs stand apart in the source and are kept apart here.
Tests used:
cells = assay: Amount of AP1903 needed in vitro for effective signaling of cells; assay type: cell-based
Protocol: The amount of AP1903 needed in vitro for effective signaling of cells is about 10-100 nM (MW: 1412 Da). This equates to 14-140 μg/L or ˜0.014-0.14 mg/kg (1.4-140 μg/kg). The dosage may vary according to the application, and may, in certain examples, be more in the range of 0.1-10 nM, or in the range of 50-150 nM, 10-200 nM, 75-125 nM, 100-500 nM, 100-600 nM, 100-700 nM, 100-800 nM, or 100-900 nM. Doses up to 1 mg/kg were well-tolerated in the Phase I study of AP1903 described above.

CAPAN-1-GFP tumor cells = assay: Co-culture of iMC-enabled T cells with CAPAN-1 tumor cells; assay type: cell-based, human; details: RV-172 T cells : CAPAN-1-GFP 5:1, 10 nM AP1903, 72 hours
[1] = system: T cells transduced with RV-172; assay: T cell proliferation in co-culture wells on AP1903 stimulation; details: RV-172 T cells with 10 nM AP1903, co-culture 72 hours, both donors
Protocol: Non-transduced T cells or cells transduced with RV-171 (control vector) or RV-172 (iMC vector) were cultured at a 5:1 ratio of T cells to tumor cells in media supplemented with 50 U/ml IL-2, and either with or without 10 nM AP1903. Co-cultures were then incubated at 37° C. and 5% CO2 for 72 hours. Cultures were subsequently analyzed for the presence of GFP tumor cells by fluorescent microscopy and by harvesting the cultures with 0.25% trypsin/EDTA and measuring the frequency of GFP^+CD3^− tumor cells in the culture by flow cytometry.
Following these initial observations, T cells and tumor cells were harvested and analyzed by flow cytometry to determine the frequency of remaining CAPAN-1 GFP^+ tumor cells.

[2] = cited from earlier work
[3] = system: T cells transduced with the retrovirus containing iMC (RV-172); assay: AP1903-induced T cell activation by cytokine production (Bio-Plex 27-plex); assay type: cell-based, human; details: iMC (RV-172) T cells, 10 nM AP1903, 24 hours, supernatant
Protocol: 5. To assess AP1903-dependent T cell activation of T cells, 1×10^5 non-transduced (NT) or T cells transduced with the control retrovirus (RV-171) or the retrovirus containing iMC(RV-172) were plated in triplicate in 96-well plates and cultured at 37° C. 5% CO2 with media alone, or media containing 10 nM AP1903.
6. After 24 hours, the cells were gently mixed and the plate was centrifuged. Supernatant was then collected and plated into a Bio-Plex Human Cytokine/Chemokine 27-plex plate, which measures the following cytokines and chemokines: • a. Basic-FGF, G-CSF, GM-CSF, IFN-gamma, IL-1Ra, IL-1beta, IL-2, IL-4, IL-5, IL-6, […], IL-7, […], IL-9, IL-10, IL-12p70, IL-13, IL-15, IL-17RA, eotaxin, IP10, MCP-1, MIP-1alpha, MIP-1beta, PDGF-bb, RANTES, TNF-alpha and VEGF. • b. The cytokines and chemokines in the supernatants were subsequently measured and compared to standards in the plate using a Bio-Plex MAGPIX Multiplex Reader.
T cells were stimulated with 10 nM AP1903 for 24 hours then supernatants were assayed for cytokine levels.

In the case of CC[C@H](C(=O)N1CCCC[C@H]1C(=O)O[C@H](CCc1ccc(OC)c(OC)c1)c1cccc(OCC(=O)NCCNC(=O)COc2cccc([C@@H](CCc3ccc(OC)c(OC)c3)OC(=O)[C@@H]3CCCCN3C(=O)[C@@H](CC)c3cc(OC)c(OC)c(OC)c3)c2)c1)c1cc(OC)c(OC)c(OC)c1 (relative stereo) [AP1903, 2-Piperidinecarboxylic acid, 1-[(2S)-1-oxo-2-(3,4,5-trimethoxyphenyl)butyl]-, 1,2-ethanediylbis[imino(2-oxo-2,1-ethanediyl)oxy-3,1-phenylene[(1R)-3-(3,4-dimethoxyphenyl)propylidene]]ester, [2S-[1(R*),2R*[S*[S*[1(R*),2R*]]]]]-(9Cl)], the “amount needed for effective signaling, as dose” value (cells; converted from 14-140 μg/L) is reported as 14 to 140 µg/kg, the “amount needed for effective signaling, as mass concentration” value (cells; converted with MW 1412 Da) is reported as 14 to 140 µg/L and the “amount needed for effective signaling, as dose” value (cells; figure in brackets after the mg/kg range) is reported as 1.4 to 140 µg/kg. For the same compound, the “amount needed in vitro for effective signaling of cells” value (cells; in vitro) was 10 to 100 nM, the “GFP+ tumor cells by flow cytometry” value (CAPAN-1-GFP tumor cells) was “reduction of GFP^+ tumor cells; also recorded: induces T cell killing of tumor cells” and the “GFP+ tumor cells by fluorescent microscopy” value (CAPAN-1-GFP tumor cells) was “very few viable GFP^+ tumor cells; also recorded: elimination of GFP^+ tumor cells”. The “T cell proliferation / T cell blast activation (inspection, microscopy)” value [1] was “proliferating; also recorded: activation of T cell blasts”, the “relation of AP1903 plasma levels to dose” value ([2]; 0.01, 0.05, 0.1, 0.5 and 1.0 mg/kg IV over 2 hours) was “directly proportional to dose” and the “plasma level as % of maximal concentration” value (shortened to “plasma level as %”) ([2]; 0.5 hours post-dose) was “approximately 18%”. For the same compound, the “plasma level as %” value ([2]; 2 hours post-dose) was roughly 7%, the “plasma level as %” value ([2]; 10 hours post-dose) was roughly 1% and the well-tolerated doses ([2]; Phase I study) was “up to 1 mg/kg”. For the same compound, the “mean Cmax” value ([2]; plasma, single doses over the 0.01-1.0 mg/kg dose range infused IV over 2 hours, 24 healthy volunteers) was 10 to 1275 ng/mL, the Basic-FGF secretion [3] was “did not appear to be induced” and the G-CSF secretion [3] was “did not appear to be induced”. For the same compound, the GM-CSF secretion [3] was “showed induction”, the IFN-gamma secretion [3] was “showed induction” and the IL-1Ra secretion [3] was “did not appear to be induced”. The IL-1beta secretion [3] was “showed induction”, the IL-2 secretion [3] was “did not appear to be induced” and the IL-4 secretion [3] was “showed induction”. For the same compound, the IL-5 secretion [3] was “showed induction”, the IL-6 secretion [3] was “showed induction” and the IL-7 secretion [3] was “did not appear to be induced”. For the same compound, the IL-8 secretion [3] was “showed induction”, the IL-9 secretion [3] was “did not appear to be induced” and the IL-10 secretion [3] was “did not appear to be induced”. For the same compound, the IL-12p70 secretion [3] was “showed induction”, the IL-13 secretion [3] was “showed induction” and the IL-15 secretion [3] was “did not appear to be induced”. The IL-17RA secretion [3] was “did not appear to be induced”, the IP10 secretion [3] was “showed induction” and the MCP-1 secretion [3] was “did not appear to be induced”. The MIP-1alpha secretion [3] was “showed induction”, the MIP-1beta secretion [3] was “showed induction” and the PDGF-bb secretion [3] was “did not appear to be induced”. For the same compound, the RANTES secretion [3] was “showed induction”, the TNF-alpha secretion [3] was “showed induction” and the VEGF secretion [3] was “did not appear to be induced”. For the same compound, the eotaxin secretion [3] was “did not appear to be induced”.
